Test results published in patent US8987311B2, “Triazolyl-substituted pyridyl compounds useful as kinase inhibitors” (Bristol-Myers Squibb Company, priority 2012, dated 2015).

These compounds were tested against T1, IRAK4 (Homo sapiens, UniProt Q9NWZ3) (assay: IRAK4 Inhibition Assay). Details: ATP 500 μM; FL-IPTSPITTTYFFFKKK peptide 1.5 μM; IRAK4 0.6 nM; 60 min room temperature; Caliper LabChip 3000.
T1 sequence (Q9NWZ3 1-460): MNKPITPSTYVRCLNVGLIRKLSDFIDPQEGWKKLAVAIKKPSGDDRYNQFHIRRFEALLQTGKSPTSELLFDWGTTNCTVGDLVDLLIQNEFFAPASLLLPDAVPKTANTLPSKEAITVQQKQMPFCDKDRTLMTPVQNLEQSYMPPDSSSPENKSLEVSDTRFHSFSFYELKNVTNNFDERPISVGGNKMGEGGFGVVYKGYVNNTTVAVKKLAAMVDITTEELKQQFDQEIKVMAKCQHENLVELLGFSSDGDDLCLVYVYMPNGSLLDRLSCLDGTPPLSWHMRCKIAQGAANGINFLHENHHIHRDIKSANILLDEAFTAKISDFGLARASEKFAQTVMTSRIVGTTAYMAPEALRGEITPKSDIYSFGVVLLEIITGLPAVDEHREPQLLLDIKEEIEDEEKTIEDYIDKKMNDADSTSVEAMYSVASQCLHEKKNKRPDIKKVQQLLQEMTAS
Type: biochemical
Procedure: The assays were performed in U-bottom 384-well plates. The final assay volume was 30 μL prepared from 15 μL additions of enzyme and substrates (fluoresceinated peptide and ATP) and test compounds in assay buffer (20 mM HEPES pH 7.2, 10 mM MgCl2, 0.015% Brij35 and 4 mM DTT). The reaction was initiated by the combination of IRAK4 with substrates and test compounds. The reaction was incubated at room temperature for 60 min. and terminated by adding 45 μL of 35 mM EDTA to each sample. The reaction mixture was analyzed on the Caliper LabChip 3000 (Caliper, Hopkinton, Mass.) by electrophoretic separation of the fluorescent substrate and phosphorylated product. Inhibition data were calculated by comparison to no enzyme control reactions for 100% inhibition and vehicle-only reactions for 0% inhibition. The final concentrations of reagents in the assays are ATP, 500 μM; FL-IPTSPITTTYFFFKKK peptide 1.5 μM; IRAK4, 0.6 nM; and DMSO, 1.6%.

**Q.** With `CC(=O)NC1CCN(C(=O)c2nnc(-c3cnc(Nc4ccc5ncsc5c4)cc3NC(C)C)s2)C1` (centres unmarked) [Example 8, N-(1-(5-(6-(benzo[d]thiazol-6-ylamino)-4-(isopropylamino)pyridin-3-yl)-1,3,4-thiadiazole-2-carbonyl)pyrrolidin-3-yl)acetamide] as the compound, how does the IC50 read?
**A.** The IC50 was 3.3 nM.

**Q.** With `CC(C)Nc1cc(Nc2ccc3ncsc3c2)ncc1-c1nnc(C(=O)N2CCC(O)C2)s1` (single isomer, unassigned) [Example 7, (5-(6-(Benzo[d]thiazol-6-ylamino)-4-(isopropylamino)pyridin-3-yl)-1,3,4-thiadiazol-2-yl)(3-hydroxypyrrolidin-1-yl)methanone] as the compound, how does the IC50 read?
**A.** Its IC50 is 3.2 nM.

**Q.** Which IC50 does the source give for `CC(C)Nc1cc(Nc2ccc(C#N)cc2)ncc1-c1nnc(NC[C@@H](F)CO)o1` [Example 115, (R)-4-((5-(5-((2-Fluoro-3-hydroxypropyl)amino)-1,3,4-oxadiazol-2-yl)-4-(isopropylamino)pyridin-2-yl)amino)benzonitrile] here?
**A.** The IC50 was 22.9 nM.

**Q.** Which IC50 does the source give for `CC(C)Nc1cc(Nc2ccc3ncsc3c2)ncc1-c1nnc(C(=O)N2CCC(N)CC2)o1` [Example 161, (4-Aminopiperidin-1-yl)(5-(6-(benzo[d]thiazol-6-ylamino)-4-(isopropylamino)pyridin-3-yl)-1,3,4-oxadiazol-2-yl)methanone] here?
**A.** Its IC50 is 23 nM.

**Q.** For `Cc1sc(-c2cnc(Nc3ccc4ncsc4c3)cc2NC(C)C)nc1C(=O)NCCCN1CCCCC1` [Example 25, 2-(6-(benzo[d]thiazol-6-ylamino)-4-(isopropylamino)pyridin-3-yl)-5-methyl-N-(3-(piperidin-1-yl)propyl)thiazole-4-carboxamide], which IC50 is on record?
**A.** The IC50 was 2.7 nM.

**Q.** `CC(C)Nc1cc(Nc2ccc3ncsc3c2)ncc1-c1nc(C(=O)NCC2CCCO2)cs1` (centres unmarked) [Example 59, 2-(6-(Benzo[d]thiazol-6-ylamino)-4-(isopropylamino)pyridin-3-yl)-N-((tetrahydrofuran-2-yl)methyl)thiazole-4-carboxamide] was tested. Which IC50 did it give?
**A.** Its IC50 is 24 nM.

**Q.** Which IC50 does the source give for `COc1cccc(-c2cnc(Nc3ccc4ncsc4c3)cc2NC(C)C)n1` [Example 176, N6′-(Benzo[d]thiazol-6-yl)-N4′-isopropyl-6-methoxy-[2,3′-bipyridine]-4′,6′-diamine] here?
**A.** The IC50 was 616 nM.

**Q.** Which IC50 does the source give for `CC(C)Nc1cc(Nc2ccc3ncsc3c2)ncc1-c1ccc2cn[nH]c2c1` [Example 177, N2-(Benzo[d]thiazol-6-yl)-5-(1H-indazol-6-yl)-N4-isopropylpyridine-2,4-diamine] here?
**A.** Its IC50 is 813 nM.

**Q.** With `CC(C)Nc1cc(Nc2ccc3ncsc3c2)ncc1-c1nc(C(=O)NCC2CCCCC2)cs1` [Example 56, 2-(6-(Benzo[d]thiazol-6-ylamino)-4-(isopropylamino)pyridin-3-yl)-N-(cyclohexylmethyl)thiazole-4-carboxamide] as the compound, how does the IC50 read?
**A.** The IC50 was 795 nM.

**Q.** How did the IC50 turn out when `CC(C)Nc1cc(Nc2ccc3ncsc3c2)ncc1-c1nnc(N2CCN(CCO)CC2)o1` [Example 129, 2-(4-(5-(6-(Benzo[d]thiazol-6-ylamino)-4-(isopropylamino)pyridin-3-yl)-1,3,4-oxadiazol-2-yl)piperazin-1-yl)ethanol] was run?
**A.** Its IC50 is 25.4 nM.

**Q.** Which IC50 does the source give for `CC(C)Nc1cc(Nc2ccc3ncsc3c2)ncc1-c1nc(C(=O)NC[C@H](O)c2ccccc2)cs1` [Example 81, (R)-2-(6-(Benzo[d]thiazol-6-ylamino)-4-(isopropylamino)pyridin-3-yl)-N-(2-hydroxy-2-phenylethyl)thiazole-4-carboxamide] here?
**A.** Its IC50 is 26 nM.

**Q.** How did the IC50 turn out when `Cc1oc(-c2cnc(Nc3ccc4ncsc4c3)cc2NC(C)C)nc1NC(=O)OC(C)(C)C` [Example 106, tert-butyl 2-(6-(benzo[d]thiazol-6-ylamino)-4-(isopropylamino)pyridin-3-yl)-5-methyloxazol-4-ylcarbamate] was run?
**A.** Its IC50 is 875 nM.

**Q.** Which IC50 does the source give for `CC(C)Nc1cc(Nc2ccc3ncsc3c2)ncc1-c1nc(C(=O)NCCCN2CCCC2)cs1` [Example 82, 2-(6-(Benzo[d]thiazol-6-ylamino)-4-(isopropylamino)pyridin-3-yl)-N-(3-(pyrrolidin-1-yl)propyl)thiazole-4-carboxamide] here?
**A.** The IC50 was 3.1 nM.

**Q.** With `CC(C)Nc1cc(Nc2ccc3ncsc3c2)ncc1-c1nc(C(=O)N2CCN(c3ccc(F)cc3F)CC2)cs1` [Example 31, (2-(6-(Benzo[d]thiazol-6-ylamino)-4-(isopropylamino)pyridin-3-yl)thiazol-4-yl)(4-(2,4-difluorophenyl)piperazin-1-yl)methanone] as the compound, how does the IC50 read?
**A.** The IC50 was 764 nM.

**Q.** With `CCOC(=O)c1nc(-c2cnc(Nc3ccc4ncsc4c3)cc2NC(C)C)sc1C` [Example 23, Ethyl 2-(6-(benzo[d]thiazol-6-ylamino)-4-(isopropylamino)pyridin-3-yl)-5-methylthiazole-4-carboxylate] as the compound, how does the IC50 read?
**A.** Its IC50 is 961 nM.

**Q.** `CC(C)Nc1cc(Nc2ccc3ncsc3c2)ncc1-c1nc(C(=O)N2CCC3(CC2)C(=O)NCN3c2ccccc2)cs1` [Example 48, 8-(2-(6-(Benzo[d]thiazol-6-ylamino)-4-(isopropylamino)pyridin-3-yl)thiazole-4-carbonyl)-1-phenyl-1,3,8-triazaspiro[4.5]decan-4-one] was tested. Which IC50 did it give?
**A.** The IC50 was 576 nM.

**Q.** For `NC(=O)c1nnc(-c2cnc(Nc3ccc4ncsc4c3)cc2N[C@H](CO)Cc2ccccc2)o1` [Example 152, (S)-5-(6-(Benzo[d]thiazol-6-ylamino)-4-((1-hydroxy-3-phenylpropan-2-yl)amino)pyridin-3-yl)-1,3,4-oxadiazole-2-carboxamide], which IC50 is on record?
**A.** The IC50 was 24.5 nM.

**Q.** For `CC(C)Nc1cc(Nc2ccc3nsnc3c2)ncc1-c1nnc(C(=O)N2CC[C@@H](O)C2)s1` [Example 3, (R)-(5-(6-(Benzo[c][1,2,5]thiadiazol-5-ylamino)-4-(isopropylamino)pyridin-3-yl)-1,3,4-thiadiazol-2-yl)-(3-hydroxypyrrolidin-1-yl)methanone], which IC50 is on record?
**A.** Its IC50 is 2.5 nM.

**Q.** For `CC(C)Nc1cc(Nc2ccc3ncsc3c2)ncc1-c1nnc(N2CCN(CCN3CCOCC3)CC2)o1` [Example 130, N2-(benzo[d]thiazol-6-yl)-N4-isopropyl-5-(5-(4-(2-morpholinoethyl)piperazin-1-yl)-1,3,4-oxadiazol-2-yl)pyridine-2,4-diamine], which IC50 is on record?
**A.** The IC50 was 22.1 nM.

**Q.** Which IC50 does the source give for `CC(C)Nc1cc(Nc2ccc3ncsc3c2)ncc1-c1nnc(NC2CNC2)o1` [Example 128, 5-(5-(Azetidin-3-ylamino)-1,3,4-oxadiazol-2-yl)-N2-(benzo[d]thiazol-6-yl)-N4-isopropylpyridine-2,4-diamine] here?
**A.** Its IC50 is 26.4 nM.

**Q.** For `CC(C)Nc1cc(Nc2ccc3ncsc3c2)ncc1-c1nc(C(N)=O)co1` [Example 108, 2-(6-(Benzo[d]thiazol-6-ylamino)-4-(isopropylamino)pyridin-3-yl)oxazole-4-carboxamide], which IC50 is on record?
**A.** Its IC50 is 2.7 nM.

**Q.** How did the IC50 turn out when `CC(C)Nc1cc(Nc2ccc3ncsc3c2)ncc1-c1nnc(-c2ccc(F)c(S(=O)(=O)NC(C)(C)C)c2)o1` [Example 143, 5-(5-(6-(Benzo[d]thiazol-6-ylamino)-4-(isopropylamino)pyridin-3-yl)-1,3,4-oxadiazol-2-yl)-N-(tert-butyl)-2-fluorobenzenesulfonamide] was run?
**A.** The IC50 was 676 nM.

**Q.** For `CC(C)Nc1cc(Nc2ccc3ncsc3c2)ncc1-c1nnc(C(=O)N2CCC(O)C2)s1` (single isomer, unassigned) [Example 6, (5-(6-(Benzo[d]thiazol-6-ylamino)-4-(isopropylamino)pyridin-3-yl)-1,3,4-thiadiazol-2-yl)(3-hydroxypyrrolidin-1-yl)methanone], which IC50 is on record?
**A.** The IC50 was 2.8 nM.

**Q.** For `CNC(=O)c1ccc(Nc2cc(Nc3ccc4ncsc4c3)ncc2-c2nnc(C(=O)N3CC[C@@H](O)C3)s2)cc1` [Example 19, (R)-4-((2-(benzo[d]thiazol-6-ylamino)-5-(5-(3-hydroxypyrrolidine-1-carbonyl)-1,3,4-thiadiazol-2-yl)pyridin-4-yl)amino)-N-methylbenzamide], which IC50 is on record?
**A.** The IC50 was 3.2 nM.

**Q.** For `CC(C)Nc1cc(Nc2ccc3ncsc3c2)ncc1-c1nnc[nH]1` [Example 1, N2-(benzo[d]thiazol-6-yl)-N4-isopropyl-5-(4H-1,2,4-triazol-3-yl)pyridine-2,4-diamine], which IC50 is on record?
**A.** Its IC50 is 25.3 nM.

**Q.** Which IC50 does the source give for `CC(C)Nc1cc(Nc2ccc3ncsc3c2)ncc1-c1nnc(-c2cccc(C(N)=O)c2)o1` [Example 148, 3-(5-(6-(Benzo[d]thiazol-6-ylamino)-4-(isopropylamino)pyridin-3-yl)-1,3,4-oxadiazol-2-yl)benzamide] here?
**A.** Its IC50 is 564 nM.
